Source: patent publication US12011423B2, “S-alkylisothiouronium derivatives for treating uterine hypercontractility disorders” (FORAVISET LTD., priority 2007, dated 2024)

Key:
women with uterine myoma [1] = test: S-ethylisothiouronium bromide in abnormal uterine hemorrhages and pelvic pains associated with uterine myoma (unpublished studies) and comparison; type: in vivo; details: found to be preferable over S-ethylisothiouronium bromide
Wistar male rats = test: Tail-flick test, pain under thermal stimulation (Example 2); type: in vivo
Experimental: The study was carried out on Wistar male rats (body weight of 210 g). The experiment was carried out on 30 rats divided into 3 groups of 10 animals each. The presence of pain was determined using the Tail-flick test, This method is based on monitoring the reaction time for the typical tail-withdrawal reflex as a result of thermal stimulation. First, the temperature (° C.) at which rat tails was withdrawn was determined, thus identifying the thermal level that caused pain. One hour later, the rats were injected intraperitoneally with S-ethylisothiouronium diethylphosphate in 0.9% NaCl. One group (10 rats) was injected with 5 mg/kg body weigh of S-ethylisothiouronium diethylphosphate, whilst the second and third groups (10 rats each) were injected with 10 and 20 mg/kg body weight, respectively.

[2] = system: women showing abnormal uterine bleeding; test: Effect of vaginal suppositories on abnormal uterine bleeding in women (Example 1); type: in vivo
Experimental: Thirty-six women showing abnormal uterine bleeding were enrolled to this study. Each woman received one suppository of S-ethylisothiouronium diethylphosphate (100 mg of S-ethylisothiouronium diethylphosphate in 2 gr of Suppocire®, a suppository base obtained by esterification of hydrogenated palm oil and hydrogenated palm kelnel oil) per day, applied in the posterior vaginal fornix.

[3] = system: women patients having primary dysmenorrhea; test: Effect on pelvic pains in women having primary dysmenorrhea (Example 4, group II); type: in vivo; details: intravaginal administration
Experimental: Sixty-ninewomen having symptomatic uterine myoma or primary dysmenorrhea were enrolled to this study. The women were treated with vaginal suppositories of S-ethylisothiouronium diethylphosphate (100 mg of S-ethylisothiouronium diethylphosphate in 2 gr of Suppocire® per day, applied in the posterior vaginal fornix).
In addition, the effect of S-ethylisothiouronium diethylphosphate on pelvic pains was evaluated in 38 women patients having primary dysmenorrhea (group II). The average age of the patients was 24.8±4.1 years. All the 38 patients had experienced at least 6 painful menstrual cycles prior to their inclusion in the study. The duration of the menstrual cycle in all cases was normal, i.e., of 21-35 days, with the menstruation lasting 3-7 days. Further, none of the patients was treated with oral contraceptives for at least 6 months before enrollment. The patients were eligible for the study following the confirmation of normal hematological and biochemical indexes and exclusion of antecedent gynecological surgical procedures.
To evaluate the intensity of pain, the patients reported the pain intensity at the beginning of the study, during, and at the termination of the medical management using one of the following terms: absence of pain; greatly diminished pain; slightly diminished pain; similar pain as of the previous treatment; and intensification of pain. […]

[4] = system: women suffering from primary or secondary dysmenorrhea; test: Effect of vaginal suppositories on pain in primary or secondary dysmenorrhea (Example 3); type: in vivo
Experimental: Vaginal suppositories containing S-ethylisothiouronium diethylphosphate (100 mg each/day) were applied to 28 women suffering from primary or secondary dysmenorrhea.

women with uterine myoma [5] = details: unpublished studies; cited from earlier work
[6] = 24 hours after beginning of treatment, 100 mg/day vaginal suppository, 28 women

Molecule | comparison with S-ethylisothiouronium bromide (women with uterine myoma [1]) | increase of thermal level for tail withdrawal (Wistar male rats; 5 mg/kg intraperitoneal) | thermal level for tail withdrawal after injection (Wistar male rats; 5 mg/kg intraperitoneal, before injection 73+1.26° C.) | increase of pain reception level under thermal stimulation (Wistar male rats; 10 mg/kg body weight intraperitoneal) | pain reception level under thermal stimulation after injection (Wistar male rats; 10 mg/kg body weight intraperitoneal, before injection 73+3.63° C.) | increase of pain reception level (Wistar male rats; 20 mg/kg body weight intraperitoneal) | pain reception level after injection (Wistar male rats; 20 mg/kg body weight intraperitoneal, before injection 73.5±2.07) | analgesic activity (conclusion in words) (Wistar male rats; tail-flick test, 5-20 mg/kg intraperitoneal) | complete disappearance of pathological uterine bleeding ([2]; after six suppositories (100 mg each), intravaginally, one per day, 36 women) | patients reporting menstrual cycles with a normal duration and interval ([2]; over the course of three consecutive months) | intensity of bleeding moderately reduced, full haemostatic effect not reached ([2]; patients, vaginal suppositories 100 mg per day) | Haemostasis obtained, on average, time from the start of treatment ([2]; vaginal suppositories 100 mg per day) | treated women in whom uterine cramps were abrogated [3] | complete disappearance of the pain [4, 6] | significant decrease in the intensity of the pain [4, 6] | eradication of pain ([4]; 48 hours after beginning of treatment, after a second suppository) | duration of effect and side effects (women with uterine myoma [5]) | effect on abnormal uterine hemorrhages and pelvic pains (women with uterine myoma [5])
S-ethylisothiouronium diethylphosphate | longer bioactivity, higher efficacy, and little or no side-effects | about 21% | 89.01+5.11 °C | about 31% | 96.4+3.98 °C | 59% | 16.8±9.51 °C | potent analgesic agent | 87.8 % of cases | 94.4% | 12.2% | 40 to 58 h | about 95% | 39.3% | 60.7 % of the cases | fully eradicated in all treated women |  | 
Br.CCSC(=N)N [S-ethylisothiouronium bromide] |  |  |  |  |  |  |  |  |  |  |  |  |  |  |  |  | short-duration effect accompanied with side effects such as digestive disturbances and complications | effective in reducing the abnormal uterine hemorrhages and pelvic pains
